Results on two molecules are retold here after patent US20200031920A1, “Combination Therapy for Treating Cancer” (The George Washington University, priority 2017, published 2020).

In data set [1] the test system is SKOV3 CR xenograft tumors. In words: SKOV3 CR xenograft tumors in nude mice. Format: in vivo. The method, then: FIG. 26 are line graphs showing the growth curves of tumors (A) and Kaplan-Meier survival curves (C) from mice treated with vehicle, LY2784544 (15 mg/kg/day intraperitoneally), cisplatin (8 mg/kg/week intraperitoneally), or LY2784544 plus cisplatin (combo) for 2 weeks. A photograph of the representative tumor from mice in each treatment arm is also shown (B). Data in (A) are represented as mean±SEM, n=6 mice/group. *p<0.05, **p<0.01, ***p<0.001. Data in (B) are represented as n=6 mice/group. *p<0.05, **p<0.01. Ruler scale in (B) is in cm.
FIG. 27 is an illustration showing the IHC and TUNEL staining of tumors from mice in each treatment arm sacrificed after 4 days of treatment. n=3 mice/group. Bar=50 μm.
To determine whether LY2784544 is able to sensitize SKOV3 CR cells to cisplatin in vivo, SKOV3 CR cells were implanted subcutaneously into nude mice. When the tumor volume reached 100 mm^3, mice were randomized to receive intraperitoneal injections of vehicle, cisplatin (8 mg/kg on days 1 and 8), LY2784544 (15 mg/kg/d from day 1 to day 14), or the combination of cisplatin and LY2784544. […] To evaluate whether this in vivo tumor suppression was through inhibition of the JAK2 pathway and increased apoptosis, the tumor samples four days after full dosage treatment were collected. […] Quantification of phosphorylated JAK2 and TUNEL staining in tumor tissues treated was performed (FIG. 28). […] To confirm the selectivity of LY2784544, an in vitro kinase profiling was conducted to examine the interaction of LY2784544 with more than 450 human kinases.

The next data set has as its system PEO1 cells. Briefly: cell proliferation assay, PEO1 cells. Format: cell-based. Particulars: 5 days. From the text: FIG. 63 is a line graph showing the proliferation of PEO1 and PEO4 cells treated with increasing concentrations of cisplatin for 5 days. Data are represented as mean±SD from three independent experiments performed in triplicate. Indicated IC50 values represent the mean of […] independent experiments performed in triplicate.
For ovarian cancer, recurrence more than 12 months after initial chemotherapy was considered as platinum sensitive. PEO4 was derived from the patient 10 months later when they had progressive disease and had become cisplatin resistant.

Setting [2] is: tumor samples four days after full dosage treatment.

pIC50: −log10 of the molar value.

As for `Cc1cc(Nc2cc(CN3CCOCC3)c3nc(C)c(Cc4ccc(Cl)cc4F)n3n2)n[nH]1` [LY2784544], in data set [1] (LY2784544 15 mg/kg/d i.p. day 1-14 plus cisplatin 8 mg/kg i.p. days 1 and 8), the “tumor growth, combination versus vehicle or single agents” value is reported as “significantly reduced the tumor growth”. The “survival of mice, combination” value in data set [1] (LY2784544 15 mg/kg/d i.p. plus cisplatin 8 mg/kg i.p. days 1 and 8) is listed as “improved survival of the mice”. Besides, the “histopathology of liver and kidney” value in data set [1] (any treated groups (cisplatin, LY2784544, combination), 4 days after final treatment) was “No histopathological changes and lesions in liver and kidney”. Besides, in data set [1] (during treatment), the “mouse body weight, combined treatment with cisplatin” value is on record as “no significant reduction in mouse body weight”. For the same molecule, in data set [1] (setting [2]), the “apoptosis in tumors (TUNEL), combined with cisplatin” value is given as “significantly induced the apoptosis” and the “phosphorylation of JAK2 in tumors (IHC)” value is reported as “efficiently reduce the phosphorylation of JAK2 in vivo”.
As to `N.N.[Cl][Pt][Cl]` [cisplatin], in the data set on PEO1 cells, the pIC50 was 6.49.

As usually defined, the pIC50 is −log10 of the IC50, conventionally taken in molar units.
